Assay results reported in patent US20110020494A1, “GROWTH MEDIUM FOR LACTIC ACID BACTERIA” (priority 2007, published 2011).

Tested on: mesophilic culture of Lactococcus
Test: Growth of Lactococcus with formate and purine supplementation: pH of inoculated milk over time
Format: cell-based
Conditions: milk 1% fat, 32° C., inoculation 0.022%, IMP 10 ppm, NaF 5 ppm
Procedure: In these experiments, the growth of Lactococcus in the presence of supplemented formate and purine was investigated. Equal amounts of milk (pasteurized milk w/1% fat) were added to four 1 liter Pyrex bottles. The bottles were placed in the water bath at 32° C.
All bottles were inoculated with a mesophilic culture of Lactococcus (0.022%). When the milk reached 32° C., three of the four bottles were supplemented with Na formate and/or disodium-5′-inosinate (IMP), as shown below.
The initial pH of the milk was recorded. The pH in the bottles was measured every hour for the first two hours and then every half hour until a pH of around 4.6 was reached.
The pH of each of the bottles, as a function of time, is shown below, and graphed in FIG. 1.

Molecule | pH (time 0 hours (initial pH)) | pH (time 1 hour) | pH (time 2 hours) | pH (time 2.6 hours) | pH (time 3 hours) | pH (time 3.5 hours) | pH (time 4 hours) | pH (time 5.1 hours) | pH (time 5.6 hours)
O=C[O-].[Na+] [NaF, sodium formate] | 6.54 | 6.48 | 6.29 | 6.03 | 5.79 | 5.51 | 5.26 | 4.66 | 4.54
disodium-5′-inosinate [IMP] | 6.54 | 6.48 | 6.27 | 5.98 | 5.73 | 5.42 | 5.17 | 4.6 | 4.5
